Experimental findings from article PMC11249646, “Small-Molecule Disruptors of the Interaction between Calcium- and Integrin-Binding Protein 1 and Integrin αIIbβ3 as Novel Antiplatelet Agents” (ACS Pharmacology & Translational Science, 2024) are described below.

What all share (assay type): binding
Experiment [1] addresses T1, CIB1 and αIIb interaction (GST-CIB1 : F-αIIb peptide) (Homo sapiens, UniProt Q99828).
T1 construct: made in house; host or cells: BL-21 plus RIL cells (E. coli)
T1 sequence (Q99828 1-191): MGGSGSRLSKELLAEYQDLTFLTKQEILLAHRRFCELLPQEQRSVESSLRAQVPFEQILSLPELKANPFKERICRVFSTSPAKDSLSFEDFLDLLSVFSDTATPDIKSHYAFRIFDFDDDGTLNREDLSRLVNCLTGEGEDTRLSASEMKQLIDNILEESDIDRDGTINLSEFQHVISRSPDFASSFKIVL
The experiment can be described thus: FP assay, 384-well format (screen). Also on record: 384-well SCREEN Efficacy (%): concentration or dose not given beside the values. The following applies: for IC50: read-out: 384-well SCREEN IC50.

The target in experiment [2] is T2, GST-CIB1 : F-scrambled peptide (Homo sapiens, UniProt Q99828).
T2 construct: made in house; host or cells: BL-21 plus RIL cells (E. coli)
T2 sequence (Q99828 1-191): T1 sequence (Q99828 1-191)
Put plainly: FP scrambled-peptide counter screen, 384-well format. The following applies: for IC50: read-out: 384-well COUNTERSCREEN IC50; for 384-well COUNTERSCREEN Confirm?: *: Curve in opposite direction. (The purpose of a counterscreen is to sort out artefacts and off-target activity.)

Experiment [3] deals with T3, CIB1 and αIIb interaction (CIB1-GST : F-αIIb peptide) (Homo sapiens, UniProt Q99828).
T3 construct: made in house; host or cells: BL-21 plus RIL cells (E. coli)
T3 sequence (Q99828 1-191): T1 sequence (Q99828 1-191)
Put plainly: FP assay, 1536-well qHTS format (primary and confirmatory screen). A general note: qHTS replaces the single test concentration by a dilution series.

For experiment [4], the target named is T2, GST-CIB1 : F-scrambled peptide. The experiment can be described thus: FP scrambled-peptide counter screen, 1536-well format.
[5] abbreviates: confirmatory screen, YES/NO call.
Where [6] appears, read: confirmatory screen, qHTS curve class, negative sign = inhibitory curve.
Setting [7] is: confirmatory screen, negative = inhibition.
Setting [8] is: confirmatory screen, read-out: CONFIRMATORY SCREEN IC50.
The mark [9] stands for this setting: qHTS FP screen hits, Table S2, negative = inhibition.
Setting [10] is: qHTS FP screen hits, Table S2, one class per curve where COUNT > 1, negative sign = inhibitory curve.
[11] abbreviates: qHTS FP screen hits, Table S2, read-out: IC50.
Setting [12] is: scrambled-peptide counterscreen.
Setting [13] is: scrambled-peptide counterscreen, YES/NO call.
The mark [14] stands for this setting: scrambled-peptide counterscreen, qHTS curve class.

Molecules are shown by their SMILES. Where two headings read alike, the source gives them in different places.

On to `O=C(O)C(F)(F)F.O=S(=O)(Nc1nc2n(n1)C(c1ccccc1)C=C(c1ccc(Cl)cc1)N2)c1ccccc1` (centres unmarked) [NCGC00100537-04], for which, in experiment [1] (F-αIIb peptide), the “384-well SCREEN Efficacy (%)” value is 85%. The “384-well SCREEN Confirm?” value in experiment [1] (F-αIIb peptide, YES/NO) is “YES”. Besides, the IC50 (as a rule, the concentration needed to halve the response being measured) in experiment [1] (F-αIIb peptide) is 50.1 µM; in experiment [2] (F-scrambled peptide), 50.1 µM; in experiment [3] (setting [8]) it was 39.8 µM; in experiment [3] (setting [11]), 22.4 µM. In addition, the “384-well COUNTERSCREEN Efficacy (%)” value in experiment [2] (F-scrambled peptide) turned out to be 80%. In addition, the “CONFIRMATORY SCREEN Confirm?” value in experiment [3] (setting [5]) is reported as “YES”. Besides, the “CONFIRMATORY SCREEN Curve Class” value in experiment [3] (setting [6]) is reported as -2.2. The “CONFIRMATORY SCREEN Efficacy (%)” value in experiment [3] (setting [7]) is reported as -81%. Further, the “Efficacy (%)” value in experiment [3] (setting [9]) is on record as -125%. Moreover, the “Curve Class” value in experiment [3] (setting [10]) was -1.1. Moreover, the “COUNTERSCREEN Efficacy (%)” value in experiment [4] (setting [12]) was found to be 10%. For the same molecule, the “COUNTERSCREEN Confirm?” value in experiment [4] (setting [13]) was “YES”. The “COUNTERSCREEN Curve Class” value in experiment [4] (setting [14]) is given as 4.

On to `CC[P](CC)(CC)=[Au][S][C@@H]1O[C@H](COC(C)=O)[C@@H](OC(C)=O)[C@H](OC(C)=O)[C@H]1OC(C)=O` [NCGC00160391-02], for which, in experiment [1], the “384-well SCREEN Confirm?” value is “YES”, the “384-well SCREEN Efficacy (%)” value amounted to 69% and the IC50 is 6.3 µM. In addition, in experiment [2], the “384-well COUNTERSCREEN Efficacy (%)” value is recorded as 52% and the half-maximal inhibitory concentration (IC50) was found to be 8.9 µM. In addition, in experiment [3], the “CONFIRMATORY SCREEN Confirm?” value is “YES”, the “CONFIRMATORY SCREEN Curve Class” value is -1.2 and the “CONFIRMATORY SCREEN Efficacy (%)” value is -36%. Besides, the half-maximal inhibitory concentration (IC50) in experiment [3] (read-out: CONFIRMATORY SCREEN IC50) is 31.6 µM. Also, in experiment [4], the “COUNTERSCREEN Confirm?” value is “YES”, the “COUNTERSCREEN Curve Class” value worked out at 4 and the “COUNTERSCREEN Efficacy (%)” value was -14%.

In the case of `CCc1oc2ccccc2c1C(=O)c1cc(I)c(O)c(I)c1` [NCGC00160408-03], the “384-well SCREEN Efficacy (%)” value in experiment [1] (F-αIIb peptide) is 31%. The IC50 is > 120 µM in experiment [1] (F-αIIb peptide); 10 µM in experiment [2] (F-scrambled peptide); 11.2 µM in experiment [3] (setting [8]); 39.8 µM in experiment [3] (setting [11]); 11.2 µM in experiment [4] (scrambled-peptide counterscreen, read-out: COUNTERSCREEN IC50). Moreover, the “384-well COUNTERSCREEN Efficacy (%)” value in experiment [2] (F-scrambled peptide) is 173%. Besides, in experiment [3] (setting [5]), the “CONFIRMATORY SCREEN Confirm?” value is reported as “YES”. The “CONFIRMATORY SCREEN Curve Class” value in experiment [3] (setting [6]) is given as -1.2. Moreover, the “CONFIRMATORY SCREEN Efficacy (%)” value in experiment [3] (setting [7]) was -75%. The “Efficacy (%)” value in experiment [3] (setting [9]) was -52%. Further, the “Curve Class” value in experiment [3] (setting [10]) is -2.2. Further, the “COUNTERSCREEN Efficacy (%)” value in experiment [4] (setting [12]) stood at 20%. The “COUNTERSCREEN Confirm?” value in experiment [4] (setting [13]) was “YES”. Also, the “COUNTERSCREEN Curve Class” value in experiment [4] (setting [14]) was 1.4.

As to `CCCCCCCCOc1ccccc1C(=O)Nc1ccc(C(=O)OCC[N+](C)(CC)CC)cc1.[Br-]` [NCGC00163507-02], in experiment [1] (F-αIIb peptide), the “384-well SCREEN Efficacy (%)” value is 69% and the IC50 turned out to be 12.6 µM. Further, the “384-well SCREEN Confirm?” value in experiment [1] (F-αIIb peptide, YES/NO) is “YES”. In addition, in experiment [2] (F-scrambled peptide), the “384-well COUNTERSCREEN Efficacy (%)” value turned out to be 39%, the “384-well COUNTERSCREEN Confirm?” value was “YES” and the IC50 was > 120 µM. Besides, the “CONFIRMATORY SCREEN Confirm?” value in experiment [3] (setting [5]) was “YES”. Further, the “CONFIRMATORY SCREEN Curve Class” value in experiment [3] (setting [6]) is -3. Moreover, the “CONFIRMATORY SCREEN Efficacy (%)” value in experiment [3] (setting [7]) is -60%. Also, the IC50 in experiment [3] (setting [8]) amounted to 39.8 µM. Further, in experiment [4] (setting [12]), the “COUNTERSCREEN Efficacy (%)” value is 0%. Besides, the “COUNTERSCREEN Confirm?” value in experiment [4] (setting [13]) is “YES”. Besides, in experiment [4] (setting [14]), the “COUNTERSCREEN Curve Class” value is 4.

`COc1nn(CSP(=S)(OC)OC)c(=O)s1` [NCGC00163724-03]: the “384-well SCREEN Efficacy (%)” value in experiment [1] (F-αIIb peptide) is 80%. Besides, the “384-well SCREEN Confirm?” value in experiment [1] (F-αIIb peptide, YES/NO) is listed as “YES”. Moreover, the IC50 in experiment [1] (F-αIIb peptide) was 15.8 µM; in experiment [2] (F-scrambled peptide) it was > 120 µM; in experiment [3] (setting [8]), 20 µM; in experiment [3] (qHTS primary screen hits, Table S2, read-out: IC50), 58.6 µM. In addition, in experiment [2] (F-scrambled peptide), the “384-well COUNTERSCREEN Efficacy (%)” value is 60%. The “384-well COUNTERSCREEN Confirm?” value in experiment [2] (F-scrambled peptide) is listed as “YES”. Moreover, the “CONFIRMATORY SCREEN Confirm?” value in experiment [3] (setting [5]) is on record as “YES”. In addition, the “CONFIRMATORY SCREEN Curve Class” value in experiment [3] (setting [6]) was -1.4. For the same molecule, the “CONFIRMATORY SCREEN Efficacy (%)” value in experiment [3] (setting [7]) is recorded as -47%. In experiment [3] (qHTS primary screen hits, Table S2, negative = inhibition), the “Efficacy (%)” value is on record as -47%. In addition, the “Curve Class” value in experiment [3] (qHTS primary screen hits, Table S2, negative sign = inhibitory curve, several classes where COUNT > 1) is reported as -1.2. The “COUNTERSCREEN Efficacy (%)” value in experiment [4] (setting [12]) turned out to be 0%. The “COUNTERSCREEN Confirm?” value in experiment [4] (setting [13]) is listed as “YES”. Further, the “COUNTERSCREEN Curve Class” value in experiment [4] (setting [14]) is given as 4.
